Test results taken from patent US20050229276A1, “Method of producing cyclamen root tuber and method of proliferating cyclamen using the same” (Tokyo University of Agricultural, priority 2002, published 2005).

Tested on: explants from leaves of cyclamen (species: Flamenco)
Test: Culture of explants from leaves (comparative)
Assay type: cell-based
Conditions: NAA 0.05 mg/l, 20 explants planted, 30 days
Protocol: For comparison, the explants from leaves and petioles of cyclamen (species: Flamenco) were cultured for 30 days by changing the contents of BA and sucrose in a basal medium prepared by adding 0.05 mg/l of NAA and 6 g/l of agar to the ⅓ MS medium and having a pH of 7.0. In all the cases, the root tubers were hardly enlarged by culture and rarely regenerated and accordingly, a clonal plant could not be obtained with high reproducibility.

## c1ccc(CNc2ncnc3[nH]cnc23)cc1 [BA, benzylaminopurine]
BA 0.05 mg/l
  Number of enlarged explants: 0
  Number of regenerate explants: 0
BA 0.05 mg/l, sucrose 30 g/m
  Number of enlarged explants: 1
  Number of regenerate explants: 0
BA 0.05 mg/l, sucrose 70 g/m
  Number of enlarged explants: 0
  Number of regenerate explants: 0
BA 0.05 mg/l, sucrose 90 g/m
  Number of enlarged explants: 0
  Number of regenerate explants: 0
BA 0.1 mg/l
  Number of enlarged explants: 1
  Number of regenerate explants: 0
BA 0.1 mg/l, sucrose 30 g/m
  Number of enlarged explants: 2
  Number of regenerate explants: 1
BA 0.1 mg/l, sucrose 70 g/m
  Number of enlarged explants: 0
  Number of regenerate explants: 0
BA 0.1 mg/l, sucrose 90 g/m
  Number of enlarged explants: 0
  Number of regenerate explants: 0
BA 0.5 mg/l
  Number of enlarged explants: 4
  Number of regenerate explants: 1
BA 0.5 mg/l, sucrose 30 g/m
  Number of enlarged explants: 2
  Number of regenerate explants: 2
BA 0.5 mg/l, sucrose 70 g/m
  Number of enlarged explants: 1
  Number of regenerate explants: 0
BA 0.5 mg/l, sucrose 90 g/m
  Number of enlarged explants: 2
  Number of regenerate explants: 0
BA 1 mg/l
  Number of enlarged explants: 4
  Number of regenerate explants: 2
BA 1 mg/l, sucrose 30 g/m
  Number of enlarged explants: 6
  Number of regenerate explants: 3
BA 1 mg/l, sucrose 70 g/m
  Number of enlarged explants: 3
  Number of regenerate explants: 1
BA 1 mg/l, sucrose 90 g/m
  Number of enlarged explants: 5
  Number of regenerate explants: 1
